Assay results from patent publication US20180325840A1, “COMPOSITIONS AND METHODS FOR PREVENTING OR TREATING FATTY PANCREAS OR AMELIORATING PANCREAS DISEASES CAUSED BY FATTY PANCREAS, DIABETES MELLITUS OR OTHER RELATED DISORDERS” (NATIONAL DEFENSE EDUCATION AND RESEARCH FOUNDATION, priority 2015, published 2018).

Experiments:
Assay type in all cases: in vivo
B6 mice [1] = assay: Intraperitoneal glucose tolerance test (IPGTT) in high-fat diet mice; conditions: for AUC of IPGTT: 2 g/kg glucose IP, blood glucose vs. time, 4 weeks of administration; for effect on sugar tolerance (IPGTT, in words): single test compound
Experimental: The experimental animals employed were B6 mice. The number of test animals in each group of the pre-test was four or more, and the number of test animals in each group of the confirmation test was twelve or more. […] After the animals were purchased from Lesco Biotech Co., Ltd. (Taipei) and housed at the National Defense Animal Center, the animal experiments were conducted following the Experimental Guide of National Health Research Institute. First, the animals were fed with 3-5 grams of general diet daily, and the water was supplied infinitely. After 1 to 2 weeks of breeding, the healthy state was observed. The body weight was recorded once a week.
The test animals were randomly grouped into blank control (Blank), high-fat control (HFD), positive control (PS), and test group.
(§1) The blank control was fed with a normal diet arbitrarily for 12 weeks. The high-fat control, the positive control, and the test group were fed with a high-fat diet arbitrarily for 12 weeks. After 8 weeks of feeding, the blank control and the high-fat control were tube fed with deionized water once a day. The positive control was tube fed with silymarin once a day. The test group was tube fed with test compound(s) once a day for 4 weeks.
1.4.3 Analysis of Biochemical Functions of the Pancreas: Intraperitoneal Glucose Tolerance Test (IPGTT)
The mice were moved into a clean cage and fasted overnight. There was no food or feces at the feeding funnel or the bottom of the clean cage to ensure that the animals may get drinking water at all times. The body weight of the mice was measured, and the volume of the glucose solution required for intraperitoneone (IP) injection was calculated (based on a concentration of 250 mg/mL and 2 g of glucose per kg of mouse weight, the volume (μl) required would be 8× body weight (g)). The mice were moved out and injected intraperitoneally with an appropriate amount of glucose solution, and the injection time was recorded. Blood samples were taken from the tail of the mice at 0, 15, 30, 60, 120 and 150 minutes after the glucose solution was injected. The concentration of blood glucose was measured, and the blood glucose analysis was performed using the Roche's ACCU-CHEK Active blood glucose meter.
(§2) All data were expressed as mean±standard deviation (SD), and the test results were calculated using the ANOVA test method to determine whether there was a statistically significant difference by using the Statistical Package of the Social Science program (Version 13, SPSS Inc.) software package. Subsequently, post hoc test least significant difference method was used to perform multiple comparisons to confirm the significant differences between the groups. The significant difference between the averages of the groups was p<0.05.

B6 mice [2] = assay: Blood glucose analysis (GLU) in high-fat diet mice; conditions: for GLU: fasted overnight, 4 weeks of administration; for effect on GLU (in words): single test compound
Experimental: (§3) The experimental animals employed were B6 mice. The number of test animals in each group of the pre-test was four or more, and the number of test animals in each group of the confirmation test was twelve or more. Male mice having a weight of 18 to 23 g were bred in an animal room with a normal light and dark cycle (7:00 am to 7:00 pm being the bright period, and the rest being the dark period) at a temperature of 23±2° C. and a relative humidity of 55±15%. After the animals were purchased from Lesco Biotech Co., Ltd. (Taipei) and housed at the National Defense Animal Center, the animal experiments were conducted following the Experimental Guide of National Health Research Institute. First, the animals were fed with 3-5 grams of general diet daily, and the water was supplied infinitely. After 1 to 2 weeks of breeding, the healthy state was observed. The body weight was recorded once a week.
(§4) The test animals were randomly grouped into blank control (Blank), high-fat control (HFD), positive control (PS), and test group. The blank control was given a normal diet; the high-fat control was given a high-fat diet; the positive control was given a high-fat diet and tube fed with silymarin (5 mg/kg/day) (Iranian Journal of Pharmaceutical Research (2016), 15 (3): 493-500; Life Sciences 75 (2004) 2167-2180; and Pharm Biol. 2016 Jul. 8:1-6); and the test group was given a high-fat diet and tube fed with the test ingredient individually.
as §1
1.4.2 Analysis of Biochemical Functions of the Pancreas: Blood Glucose Analysis (GLU)
Blood glucose analysis was performed with Roche's ACCU-CHEK Active blood glucose meter. One day before blood collection, mice were fasted overnight. The code card of the blood glucose test paper was inserted into the blood glucose meter, and then the blood glucose test paper was inserted. After the blood drop pattern appeared on the meter, a drop of blood was taken from in vein at the cheek of the mouse with a buccal needle and then dropped into the blood glucose test paper. The blood glucose data shown on the blood glucose meter were recorded.
as §2

B6 mice [3] = assay: Triglyceride (TG) and total cholesterol (TC) in pancreatic tissue of high-fat diet mice; conditions: 4 weeks of administration
Experimental: as §3, §4, §1
1.4.6 Analysis of Triglyceride (TG) and Total Cholesterol (TCHO, TC) in Pancreatic Tissue
After the mice were sacrificed, the pancreas was taken out and weighed to compare the ratios of pancreas weight to body weight. The remaining pancreas was frozen and preserved, and the contents of triglyceride and the total cholesterol in the pancreas were measured.
as §2

B6 mice [4] = assay: Serum (plasma) triglyceride (TG) in high-fat diet mice; conditions: for TG (plasma triglyceride): 4 weeks of administration
Experimental: as §3, §4, §1
Before the start of the test and at the 8th and 12th week after the start of the test, blood was collected from the cheek or heart. All the animals were weighed and then sacrificed at the end of the test, and blood was collected from the cheek or heart again. The blood samples of mice were allowed to stand at room temperature for 1 hour to coagulate, and then centrifuged at 15,700×g by a frozen centrifuge at 4° C. for 5 minutes to separate the serum.
1.4.1 Analysis of Serum Triglyceride (TG) and Total Cholesterol (TCHO, TC)
Triglyceride (TG) and total cholesterol (TCHO, TC) in the serum were measured by the automatic blood biochemical analyzer.
as §2

B6 mice [5] = assay: Fasting insulin concentration (ELISA) in high-fat diet mice; conditions: for fasting insulin concentration: 4 weeks of administration; for effect on fasting insulin concentration (in words): single test compound
Experimental: as §3, §4, §1
1.4.4 Analysis of Biochemical Functions of the Pancreas: Analysis of Fasting Insulin Concentration
At the end of the test (at the twelfth week), the mice were fasted to collect the blood following the operation instructions of the mouse ultrasensitive insulin ELISA kit (ALPCO).
as §2

B6 mice [6] = assay: Homeostasis model assessment of insulin resistance (HOMA-IR) in high-fat diet mice; conditions: for HOMA-IR: 4 weeks of administration; for effect on insulin resistance (in words): single test compound
Experimental: as §3, §4, §1
1.4.5 Analysis of Biochemical Functions of the Pancreas: Homeostasis Model Assessment of Insulin Resistance (HOMA-IR)
The mice were fasted to collect the blood at the end of the test (at the twelfth week), and the concentrations of blood glucose and insulin were measured and calculated according to the following formula: […]
as §2

Row | SMILES | AUC of IPGTT (B6 mice [1]; 1.5 mg/kg) [g·h/dL] | effect on sugar tolerance (IPGTT, in words) (B6 mice [1]) | GLU (B6 mice [2]; 1.5 mg/kg) [mg/dL] | effect on GLU (in words) (B6 mice [2]) | pancreatic TC (B6 mice [3]; 1.5 mg/kg tube fed once a day) [mg/g pancreatic tissue] | pancreatic TG (B6 mice [3]; 1.5 mg/kg tube fed once a day) [mg/g pancreatic tissue] | TG (plasma triglyceride) (B6 mice [4]; 1.5 mg/kg) [mg/dL] | fasting insulin concentration (B6 mice [5]; 1.5 mg/kg) [ng/mL] | effect on fasting insulin concentration (in words) (B6 mice [5]) | HOMA-IR (B6 mice [6]; 1.5 mg/kg) | effect on insulin resistance (in words) (B6 mice [6]) | AUC of IPGTT (B6 mice [1]; 2.5 mg/kg) [g·h/dL] | GLU (B6 mice [2]; 2.5 mg/kg) [mg/dL] | pancreatic TC (B6 mice [3]; 2.5 mg/kg tube fed once a day) [mg/g pancreatic tissue] | pancreatic TG (B6 mice [3]; 2.5 mg/kg tube fed once a day) [mg/g pancreatic tissue] | TG (plasma triglyceride) (B6 mice [4]; 2.5 mg/kg) [mg/dL] | fasting insulin concentration (B6 mice [5]; 2.5 mg/kg) [ng/mL] | HOMA-IR (B6 mice [6]; 2.5 mg/kg) | further results
1 | O=C1NS(=O)(=O)c2ccccc21 [saccharin] | 41.9 ± 6.2 | significantly reduce | 92.0 ± 9.6 | significantly reduce | 3.0 ± 0.8 | 4.7 ± 2.9 | 142.6 ± 34.6 | 1.3 ± 1.1 | significantly reduce | 0.3 ± 0.3 | significantly reduce | – | – | – | – | – | – | – | –
2 | O=C1C[C@@H](c2ccc(O)c(O)c2)Oc2cc(O)cc(O)c21 [eriodictyol] | – | significantly reduce | – | – | – | – | – | – | significantly reduce | – | significantly reduce | 41.9 ± 5.9 | 219.0 ± 35.6 | 3.5 ± 0.6 | 4.5 ± 2.8 | 135.4 ± 43.4 | 1.1 ± 0.4 | 0.6 ± 0.2 | TG (plasma triglyceride) (B6 mice [4]; 5.0 mg/kg): 143.2 ± 15.1 mg/dL; effect on triglyceride in plasma (in words) (B6 mice [4]; as compared with the high-fat control): significantly reduce
3 | CC1CCC(C(C)C)C(O)C1 (stereo not shown) [menthol] | 45.6 ± 4.8 | significantly reduce | 125.7 ± 33.5 | significantly reduce | 4.4 ± 0.9 | 18.1 ± 18.3 | 173.7 ± 56.7 | 1.2 ± 0.8 | significantly reduce | 0.4 ± 0.4 | significantly reduce | – | – | – | – | – | – | – | –
4 | COc1ccc([C@@H]2CC(=O)c3c(O)cc(O)cc3O2)cc1O [hesperitin] | – | – | – | – | – | – | – | – | – | – | – | – | – | 4.4 ± 0.7 | 5.7 ± 1.6 | 190.1 ± 25.9 | – | – | –
5 | OC[C@H]1O[C@H](O[C@]2(CCl)O[C@H](CCl)[C@@H](O)[C@@H]2O)[C@H](O)[C@@H](O)[C@H]1Cl [sucralose] | 44.2 ± 3.7 | significantly reduce | 128.7 ± 19.3 | significantly reduce | 4.2 ± 0.5 | 8.1 ± 5.6 | 126.9 ± 43.3 | 1.3 ± 0.5 | significantly reduce | 0.4 ± 0.2 | significantly reduce | – | – | – | – | – | – | – | pancreatic TC (B6 mice [3]; 7.5 mg/kg tube fed once a day): 3.1 ± 0.4 mg/g pancreatic tissue; pancreatic TG (B6 mice [3]; 7.5 mg/kg tube fed once a day): 5.2 ± 2.1 mg/g pancreatic tissue; TG (plasma triglyceride) (B6 mice [4]; 7.5 mg/kg): 186.9 ± 17.2 mg/dL
6 | O=C(CCc1ccc(O)cc1)c1c(O)cc(O)cc1O[C@@H]1O[C@H](CO)[C@@H](O)[C@H](O)[C@H]1O [phloridzin] | – | – | – | – | – | – | – | – | – | – | – | 51.3 ± 8.9 | 216.2 ± 26.4 | 3.3 ± 1.1 | 23.3 ± 24.0 | 148.3 ± 31.4 | 1.1 ± 0.3 | 0.6 ± 0.2 | –
7 | OC[C@@H](O)[C@@H](O)[C@H](O)[C@H](O)CO [mannitol] | 42.7 ± 1.7 | significantly reduce | 112.2 ± 32.0 | significantly reduce | 3.7 ± 1.0 | 12.6 ± 7.5 | 158.9 ± 48.9 | 1.1 ± 0.4 | significantly reduce | 0.3 ± 0.1 | significantly reduce | – | – | – | – | – | – | – | pancreatic TC (B6 mice [3]; 4.5 mg/kg tube fed once a day): 3.3 ± 0.7 mg/g pancreatic tissue; pancreatic TG (B6 mice [3]; 4.5 mg/kg tube fed once a day): 9.6 ± 5.1 mg/g pancreatic tissue; pancreatic TC (B6 mice [3]; 7.5 mg/kg tube fed once a day): 3.1 ± 0.3 mg/g pancreatic tissue; pancreatic TG (B6 mice [3]; 7.5 mg/kg tube fed once a day): 4.7 ± 4.0 mg/g pancreatic tissue; TG (plasma triglyceride) (B6 mice [4]; 4.5 mg/kg): 180.1 ± 46.7 mg/dL; TG (plasma triglyceride) (B6 mice [4]; 7.5 mg/kg): 163.9 ± 31.9 mg/dL
8 | O=c1c(-c2ccc(O)cc2)coc2c([C@@H]3O[C@H](CO)[C@@H](O)[C@H](O)[C@H]3O)c(O)ccc12 [puerarin] | – | significantly reduce | – | – | – | – | – | – | significantly reduce | – | significantly reduce | 45.1 ± 11.2 | 172.3 ± 22.2 | 4.0 ± 1.2 | 17.3 ± 13.4 | 166.7 ± 22.0 | 0.9 ± 0.3 | 0.4 ± 0.2 | –
